Drawing on patent US12612407B2, “Imidazo[2,1-f][1,2,4]triazin-4-amine derivatives as TLR7 agonist” (BEIGENE, LTD., priority 2020, dated 2026), this text covers EC50 for 21 compounds.

The target of the test is T1, human TLR7 (Homo sapiens, UniProt Q9NYK1).
T1 construct: host or cells: HEK293 (HEK-Blue hTLR7)
T1 sequence (Q9NYK1 27-1049): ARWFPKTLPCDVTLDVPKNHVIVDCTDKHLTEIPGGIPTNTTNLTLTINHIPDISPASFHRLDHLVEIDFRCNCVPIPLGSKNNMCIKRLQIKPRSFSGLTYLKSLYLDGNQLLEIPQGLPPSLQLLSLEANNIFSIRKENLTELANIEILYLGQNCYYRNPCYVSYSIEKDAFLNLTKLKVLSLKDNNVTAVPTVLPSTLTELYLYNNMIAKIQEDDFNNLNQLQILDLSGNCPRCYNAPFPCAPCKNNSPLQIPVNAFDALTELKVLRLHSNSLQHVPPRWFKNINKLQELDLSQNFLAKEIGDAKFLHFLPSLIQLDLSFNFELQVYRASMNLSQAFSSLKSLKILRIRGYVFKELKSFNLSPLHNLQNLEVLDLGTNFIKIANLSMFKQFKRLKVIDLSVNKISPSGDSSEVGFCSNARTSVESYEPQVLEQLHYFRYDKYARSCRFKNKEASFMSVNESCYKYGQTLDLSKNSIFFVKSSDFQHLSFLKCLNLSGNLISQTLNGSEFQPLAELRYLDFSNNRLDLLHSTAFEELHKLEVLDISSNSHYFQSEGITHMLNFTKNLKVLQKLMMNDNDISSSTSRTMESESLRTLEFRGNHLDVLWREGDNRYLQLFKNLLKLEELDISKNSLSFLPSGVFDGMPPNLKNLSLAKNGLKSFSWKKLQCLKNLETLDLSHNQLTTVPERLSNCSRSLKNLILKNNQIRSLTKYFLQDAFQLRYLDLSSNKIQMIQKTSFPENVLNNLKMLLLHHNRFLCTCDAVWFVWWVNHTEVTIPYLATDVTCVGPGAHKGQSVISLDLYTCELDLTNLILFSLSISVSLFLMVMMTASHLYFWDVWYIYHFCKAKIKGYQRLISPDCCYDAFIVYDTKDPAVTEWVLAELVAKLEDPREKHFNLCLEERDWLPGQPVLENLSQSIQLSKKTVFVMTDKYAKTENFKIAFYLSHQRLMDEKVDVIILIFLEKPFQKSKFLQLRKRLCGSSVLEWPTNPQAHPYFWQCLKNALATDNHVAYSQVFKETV
Put plainly: HEK293-Blue hTLR7 Reporter Assay (QUANTI-BLUE, SEAP readout). Type of test: cell-based. The conditions noted are these: HEK-Blue-hTLR7 cells, 24 hrs treatment, Table 1, B1-B232. A digest of the protocol: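 HEK-Blue-hTLR7 cells expressing NF-κB/AP-1-driven SEAP, 4×10^4 cells/well, treated 24 h at 37° C with increasing compound concentrations. Supernatant SEAP measured with Quanti-blue substrate (10-30 min, 37° C) at 620-655 nm; EC50 from sigmoidal dose-response fit.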
As to `CCCC(C)Oc1nc(N)c2ncc(Cc3cnc(N4CCC(CNC)CC4)c(C)c3)n2n1` (stereo not drawn) [Compound B205, 7-((5-methyl-6-(4-((methylamino)methyl)piperidin-1-yl)pyridin-3-yl)methyl)-2-(pentan-2-yloxy)imidazo[2,1-f][1,2,4]triazin-4-amine], the midpoint of the response, the EC50, lay at 6.5 nM.

In the case of `CNCC(C)Oc1nc(N)c2ncc(Cc3cnc(N4CCNCC4)c(C)c3)n2n1` (stereo not drawn) [Compound B206, 7-((5-methyl-6-(piperazin-1-yl)pyridin-3-yl)methyl)-2-((1-(methylamino)propan-2-yl)oxy)imidazo[2,1-f][1,2,4]triazin-4-amine], the EC50 (usually the concentration needed to bring the measured effect to its halfway point) is 5610 nM.

`CCC(CC)Nc1nc(N)c2ncc(Cc3cnc(N4CCC(CN(C)C)CC4)c(C)c3)n2n1` [Compound B208, 7-((6-(4-((dimethylamino)methyl)piperidin-1-yl)-5-methylpyridin-3-yl)methyl)-N2-(pentan-3-yl)imidazo[2,1-f][1,2,4]triazine-2,4-diamine]: the response was half-maximal at 7.4 nM (EC50).

For `CCC(CC)Nc1nc(N)c2ncc(Cc3cnc(N4CCC(N(C)C)CC4)c(C)c3)n2n1` [Compound B209, 7-((6-(4-(dimethylamino)piperidin-1-yl)-5-methylpyridin-3-yl)methyl)-N2-(pentan-3-yl)imidazo[2,1-f][1,2,4]triazine-2,4-diamine], the 50% effective concentration (EC50) was 9.2 nM.

Take `CCC(CC)Nc1nc(N)c2ncc(Cc3cnc(N4CCNCC4)c(C)c3)n2n1` [Compound B210, 7-((5-methyl-6-(piperazin-1-yl)pyridin-3-yl)methyl)-N2-(pentan-3-yl)imidazo[2,1-f][1,2,4]triazine-2,4-diamine]: the EC50 is 12 nM.

`CCC(CC)Nc1nc(N)c2ncc(Cc3cnc(N4CCN(C(=O)CN(C)C)CC4)c(C)c3)n2n1` [Compound B211, 1-(4-(5-((4-amino-2-(pentan-3-ylamino)imidazo[2,1-f][1,2,4]triazin-7-yl)methyl)-3-methylpyridin-2-yl)piperazin-1-yl)-2-(dimethylamino)ethan-1-one] displayed a concentration for a half-maximal effect (EC50) of 7.7 nM.

`CCC[C@H](C)Oc1nc(N)c2ncc(Cc3cnc(N4CCN(C(=O)CNCC(C)C)CC4)c(C)c3)n2n1` [Compound B212, (S)-1-(4-(5-((4-amino-2-(pentan-2-yloxy)imidazo[2,1-f][1,2,4]triazin-7-yl)methyl)-3-methylpyridin-2-yl)piperazin-1-yl)-2-(isobutylamino)ethan-1-one]: the EC50 stood at 6.2 nM.

The compound `CCC[C@H](C)Oc1nc(N)c2ncc(Cc3cnc(N4CCC(NCC(C)C)CC4)c(C)c3)n2n1` [Compound B215, (S)-7-((6-(4-(isobutylamino)piperidin-1-yl)-5-methylpyridin-3-yl)methyl)-2-(pentan-2-yloxy)imidazo[2,1-f][1,2,4]triazin-4-amine] registered a concentration giving a half-maximal response (EC50) of 4.2 nM.

For the compound `CC[C@@H](CCO)Oc1nc(N)c2ncc(Cc3cnc(N4CCNCC4)c(C)c3)n2n1` [Compound B216, (S)-3-((4-amino-7-((5-methyl-6-(piperazin-1-yl)pyridin-3-yl)methyl)imidazo[2,1-f][1,2,4]triazin-2-yl)oxy)pentan-1-ol], the EC50 came out at 1080 nM.

In turn, `CC[C@H](O)CCOc1nc(N)c2ncc(Cc3cnc(N4CCNCC4)c(C)c3)n2n1` [Compound B217, (S)-1-((4-amino-7-((5-methyl-6-(piperazin-1-yl)pyridin-3-yl)methyl)imidazo[2,1-f][1,2,4]triazin-2-yl)oxy)pentan-3-ol] came in with an EC50 of 2440 nM.

The compound `CCCC(CCO)Oc1nc(N)c2ncc(Cc3cnc(N4CCN(C(=O)CNC)CC4)c(C)c3)n2n1` (stereo not drawn) [Compound B218, 1-(4-(5-((4-amino-2-((1-hydroxyhexan-3-yl)oxy)imidazo[2,1-f][1,2,4]triazin-7-yl)methyl)-3-methylpyridin-2-yl)piperazin-1-yl)-2-(methylamino)ethan-1-one] displayed an EC50 of 46 nM.

Take `CCCC(CCC)Nc1nc(N)c2ncc(Cc3cnc(N4CCC(CNC)CC4)c(C)c3)n2n1` [Compound B220, N2-(heptan-4-yl)-7-((5-methyl-6-(4-((methylamino)methyl)piperidin-1-yl)pyridin-3-yl)methyl)imidazo[2,1-f][1,2,4]triazine-2,4-diamine]: the concentration giving a half-maximal response (EC50) was found to be 3.6 nM.

In turn, `CCCC(CC)Nc1nc(N)c2ncc(Cc3cnc(N4CCNCC4)c(C)c3)n2n1` (stereo not drawn) [Compound B223, N2-(hexan-3-yl)-7-((5-methyl-6-(piperazin-1-yl)pyridin-3-yl)methyl)imidazo[2,1-f][1,2,4]triazine-2,4-diamine] had an EC50 of 6 nM.

Take `CCC[C@@H](CCO)Nc1nc(N)c2ncc(Cc3cnc(N4CCNCC4)c(C)c3)n2n1` [Compound B226, (S)-3-((4-amino-7-((5-methyl-6-(piperazin-1-yl)pyridin-3-yl)methyl)imidazo[2,1-f][1,2,4]triazin-2-yl)amino)hexan-1-ol]: a half-maximal effect (EC50) was put at 46 nM.

As for `CCCC(Nc1nc(N)c2ncc(Cc3cnc(N4CCNCC4)c(C)c3)n2n1)C(F)(F)F` (stereo not drawn) [Compound B227, 7-((5-methyl-6-(piperazin-1-yl)pyridin-3-yl)methyl)-N2-(1,1,1-trifluoropentan-2-yl)imidazo[2,1-f][1,2,4]triazine-2,4-diamine], it took 25 nM to reach a half-maximal effect (EC50).

As for `CCC[C@@H](CCO)Nc1nc(N)c2ncc(Cc3cnc(N4CCC(CNC)CC4)c(C)c3)n2n1` [Compound B228, (S)-3-((4-amino-7-((5-methyl-6-(4-((methylamino)methyl)piperidin-1-yl)pyridin-3-yl)methyl)imidazo[2,1-f][1,2,4]triazin-2-yl)amino)hexan-1-ol], the concentration for a half-maximal effect (EC50) worked out at 37 nM.

For `CCCC(CCO)Oc1nc(N)c2ncc(Cc3cnc(N4CCC(CNC)CC4)c(C)c3)n2n1` (stereo not drawn) [Compound B229, 3-((4-amino-7-((5-methyl-6-(4-((methylamino)methyl)piperidin-1-yl)pyridin-3-yl)methyl)imidazo[2,1-f][1,2,4]triazin-2-yl)oxy)hexan-1-ol], the EC50 was determined as 14 nM.

For `CCC[C@H](CC)Oc1nc(N)c2ncc(Cc3cnc(N4CCN(C(=O)CNC)CC4)c(C)c3)n2n1` [Compound B230, (S)-1-(4-(5-((4-amino-2-(hexan-3-yloxy)imidazo[2,1-f][1,2,4]triazin-7-yl)methyl)-3-methylpyridin-2-yl)piperazin-1-yl)-2-(methylamino)ethan-1-one], the EC50 turned out to be 4.8 nM.

The compound `CCC[C@H](C)Nc1nc(N)c2ncc(Cc3cnc(N4CCN(C(=O)CNC)CC4)c(C)c3)n2n1` [Compound B231, (S)-1-(4-(5-((4-amino-2-(pentan-2-ylamino)imidazo[2,1-f][1,2,4]triazin-7-yl)methyl)-3-methylpyridin-2-yl)piperazin-1-yl)-2-(methylamino)ethan-1-one] displayed an EC50 of 4.1 nM.

In the case of `CCCC(CO)Nc1nc(N)c2ncc(Cc3cnc(N4CCC(CNC)CC4)c(C)c3)n2n1` (stereo not drawn) [Compound B232, 2-((4-amino-7-((5-methyl-6-(4-((methylamino)methyl)piperidin-1-yl)pyridin-3-yl)methyl)imidazo[2,1-f][1,2,4]triazin-2-yl)amino)pentan-1-ol], the response was half-maximal at 31 nM (EC50).

“N2-methyl-7-((5-methyl-6-(piperazin-1-yl)pyridin-3-yl)methyl)-N2-propylimidazo[2,1-f][1,2,4]triazine-2,4-diamine [Compound B84]” had an EC50 of 1000 nM.
